Measurements reported in article PMC3489043 (Nature neuroscience, 2011).
Where two headings read alike, the source gives them in different places.

Key:
α7–AChBP chimera = assay: Radiolabeled ligand binding to the α7–AChBP chimera; design: species or system human / Lymnaea stagnalis
human α7 AChR = human α7 AChR (Homo sapiens, UniProt P36544); assay type: binding
mutant α7 AChRs [1] = molecular target: mutant α7 AChRs (Homo sapiens, UniProt P36544, W77F); assay type: binding
mutant α7 AChRs [2] = assay type: binding, human
α7 AChRs = settings: cited from earlier work
muscle AChRs = settings: cited from earlier work

Sequence of human α7 AChR (P36544 23-502): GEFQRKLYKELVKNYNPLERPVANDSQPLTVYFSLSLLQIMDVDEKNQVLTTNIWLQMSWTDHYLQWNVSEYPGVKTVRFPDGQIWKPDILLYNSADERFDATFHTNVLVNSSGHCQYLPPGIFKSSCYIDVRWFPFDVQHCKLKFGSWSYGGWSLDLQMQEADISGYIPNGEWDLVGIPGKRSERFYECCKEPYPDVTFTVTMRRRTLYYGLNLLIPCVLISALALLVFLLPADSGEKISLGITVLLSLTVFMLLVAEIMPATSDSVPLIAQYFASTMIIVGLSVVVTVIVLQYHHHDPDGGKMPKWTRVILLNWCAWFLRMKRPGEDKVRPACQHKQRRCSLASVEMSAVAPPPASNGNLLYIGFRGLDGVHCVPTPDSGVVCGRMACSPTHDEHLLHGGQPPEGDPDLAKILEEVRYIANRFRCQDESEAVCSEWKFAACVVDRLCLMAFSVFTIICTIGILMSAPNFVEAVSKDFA
Sequence of mutant α7 AChRs (Homo sapiens, UniProt P36544, W77F) (P36544 23-502 W77F): as the sequence (P36544 23-502) above, with W55F counted along it

Clc1ccc(C2CC3CCC2N3)cn1 (stereo not shown) [epibatidine]
binding of radiolabeled ligand to the α7–AChBP chimera (α7–AChBP chimera; radiolabeled ligand, Supplementary Fig. 2): bound
epibatidine binding to the α7 AChR (human α7 AChR): cooperatively and with high affinity
cooperativity of epibatidine binding (mutant α7 AChRs [1]): markedly reduced cooperativity
cooperativity of epibatidine binding (mutant α7 AChRs [2]): maintained cooperativity
increase of the apparent dissociation constant by phenylalanine substitutions (mutant α7 AChRs [2]): 4- to 2,200 fold

α-bungarotoxin
binding of radiolabeled ligand to the α7–AChBP chimera (α7–AChBP chimera): bound

C[N+](C)(C)CCO [choline]
efficacy at α7 AChRs (α7 AChRs): high efficacy
efficacy at muscle AChRs (muscle AChRs): low efficacy

CC(=O)OCC[N+](C)(C)C [ACh, acetylcholine]
cooperativity of ACh binding (human α7 AChR; steady-state binding): highly cooperative
change of agonist affinity for the α7 AChR (mutant α7 AChRs [2]; substitutions at Arg182, Glu185, Glu181 (loop C) and Gln37, steady-state binding): increased affinity
